Experimental findings from ChEMBL document CHEMBL6120944, “SAR Analysis of Novel Coxsackie virus A9 Capsid Binders” (J Med Chem, 2024) are described below.

Data set [1] is described as follows: Distribution coefficient, log D of the compound by HPLC analysis. The class given is physicochemical. The note with it: octanol/water.
The nature of data set [2]: Cytotoxicity against human A549 cells assessed as cell viability. The class given is toxicity, cell-based.
A short description of data set [3]: Kinetic solubility of compound by HPLC analysis. The class given is physicochemical. The note with it: read-out: Kinetic_solubility.
For data set [4], the system named is Coxsackievirus A9. Put plainly: Antiviral activity against Coxsackievirus A9 infected in human A549 cells assessed as increase in cell viability at 100 uM pre-infected with virus for 1 hr followed by compound addition and measured after 24 hrs by crystal violet staining based analysis relative to control. The class given is functional.
Data set [5] concerns Coxsackievirus A9. Put plainly: Antiviral activity against Coxsackievirus A9 infected in human A549 cells assessed as increase in cell viability at 10 uM pre-infected with virus for 1 hr followed by compound addition and measured after 24 hrs by crystal violet staining based analysis. The class given is functional, organism-based.
The subject of data set [6] is Coxsackievirus A9. Put plainly: Antiviral activity against Coxsackievirus A9 infected in human A549 cells assessed as inhibition of virus-induced cytopathic effect pre-infected with virus for 1 hr followed by compound addition and measured after 24 hrs by crystal violet staining based analysis. The class given is functional, organism-based. The note with it: Enterovirus B. A general note: Protection from cytopathic effect is a common read-out in antiviral testing.

The nature of data set [7]: Selectivity index, ratio of CC50 for cytotoxicity against human A549 cells assessed as cell viability to EC50 for antiviral activity against Coxsackievirus A9 infected in human A549 cells assessed as inhibition of virus-induced cytopathic effect. The class given is toxicity, cell-based. The note with it: read-out: Ratio CC50/EC50.
Data set [8] in a line: Metabolic stability in CD-1 mouse liver microsome assessed as half life preincubated with compound for 10 mins followed by NADP addition and measured after 60 mins by LC-MS/MS analysis. The class given is ADME. The conditions noted are these: liver microsomes, time 70 min. In general terms: Microsomes from liver hold many membrane-bound enzymes, among them those of drug oxidation.

The nature of data set [9]: Metabolic stability in CD-1 mouse liver microsome assessed as intrinsic clearance preincubated with compound for 10 mins followed by NADP addition and measured after 60 mins by LC-MS/MS analysis. The class given is ADME. The conditions noted are these: liver microsomes, time 70 min, read-out: CLH.
A short description of data set [10]: Metabolic stability in human liver microsome assessed as half life preincubated with compound for 10 mins followed by NADP addition and measured after 60 mins by LC-MS/MS analysis. The class given is ADME. The conditions noted are these: liver microsomes, time 70 min.
The nature of data set [11]: Metabolic stability in human liver microsome assessed as intrinsic clearance preincubated with compound for 10 mins followed by NADP addition and measured after 60 mins by LC-MS/MS analysis. The class given is ADME. The conditions noted are these: liver microsomes, time 70 min, read-out: CLH.
The test system of data set [12] is Coxsackievirus A9. Put plainly: Antiviral activity against Coxsackievirus A9 infected in human A549 cells assessed as inhibition of virus-induced cytopathic effect at 5 uM pre-infected with virus for 1 hr followed by compound addition and measured after 24 hrs by crystal violet staining based analysis relative to control. On the set-up: scale not given: the % may be the effect or the level left. The class given is functional.

Data set [13] concerns Coxsackievirus A9. Put plainly: Antiviral activity against Coxsackievirus A9 infected in human A549 cells assessed as increase in cell viability at 5 uM pre-infected with virus for 1 hr followed by compound addition and measured after 24 hrs by crystal violet staining based analysis relative to control. The class given is functional.

SMILES strings stand for the structures. Values after ≈ are worked out from the molar mass of the structure shown. Active and inactive are the calls of the source. The calls are words filed in the database; no cut-off is given here.

In the case of `CN1CCN(Cc2ccc(NCc3ccc(F)cc3)cc2)CC1`, the logD in [1] worked out at 1.94. The CC50 in [2] was determined as 364 µM. The solubility kinetic in [3] was 200 µg/mL (≈ 638 µM). Further, in the data set with Coxsackievirus A9 [4], the Activity is given as about 70%. Also, in the data set with Coxsackievirus A9 [5], the outcome was Active. In the data set with Coxsackievirus A9 [6], the EC50 is 2.34 µM. For the same molecule, the selectivity ratio in data set [7] turned out to be 155.

As for `CN1CCN(Cc2ccc(NCc3ccc(C(F)(F)F)cc3)cc2)CC1`, the half-life was 12.8 min in data set [8] and 33.7 min in data set [10]. Moreover, the microsomal CLint is 108 µL/min/mg in data set [9] and 41.2 µL/min/mg in data set [11]. Moreover, in data set [2], the CC50 was determined as 78.6 µM. The solubility kinetic in data set [3] stood at 210 µg/mL (≈ 578 µM). Besides, in the data set on Coxsackievirus A9 [4], the Activity is listed as about 60%. In addition, the outcome with Coxsackievirus A9 [5] was Active. The EC50 in the data set with Coxsackievirus A9 [6] stood at 1.06 µM. The selectivity ratio in [7] came to 74.1.

In the case of `COc1ccccc1CNc1ccc(CN2CCN(C)CC2)cc1`, the CC50 in [2] is 360 µM. The Activity in the data set on Coxsackievirus A9 [4] was 40%. The result in the data set with Coxsackievirus A9 [5] was Active. The EC50 in the data set on Coxsackievirus A9 [6] was found to be 7.84 µM. Further, in data set [7], the selectivity ratio is 45.9.

Take `CN1CCN(Cc2ccc(NC(=O)c3ccc(Cl)cc3)cc2)CC1`: the logD in data set [1] turned out to be 2.27. For the same molecule, in data set [2], the CC50 was over 1000 µM. Moreover, in data set [3], the solubility kinetic is 220 µg/mL (≈ 640 µM). Moreover, in the data set with Coxsackievirus A9 [6], the EC50 was 7.98 µM. Moreover, in data set [7], the selectivity ratio was over 125.

As for `CN1CCN(Cc2ccc(NCc3ccc(Cl)cc3)cc2)CC1`, the Activity in the data set on Coxsackievirus A9 [12] was 100%; in the data set on Coxsackievirus A9 [13], 90%. The half-life in [8] stood at 7 min; in [10], 20.9 min. Besides, the microsomal CLint is 199 µL/min/mg in data set [9] and 66.4 µL/min/mg in data set [11]. The molecule also displayed a logD in [1] of 2.34. Further, the CC50 in data set [2] turned out to be 114 µM. For the same molecule, the solubility kinetic in [3] is 220 µg/mL (≈ 667 µM). For the same molecule, the result with Coxsackievirus A9 [5] was Active. For the same molecule, the EC50 in the data set with Coxsackievirus A9 [6] stood at 1.27 µM. Besides, the selectivity ratio in data set [7] turned out to be 90.1.

Turning to `CN1CCN(Cc2ccc(NCc3ccc(F)cc3F)cc2)CC1`, in [1], the logD was found to be 1.9. In addition, the CC50 in [2] was determined as 201 µM. In addition, the solubility kinetic in [3] was determined as 240 µg/mL (≈ 724 µM). Besides, the Activity in the data set with Coxsackievirus A9 [4] is given as about 70%. Also, the result with Coxsackievirus A9 [5] was Active. In addition, the EC50 in the data set with Coxsackievirus A9 [6] turned out to be 6.8 µM. For the same molecule, in [7], the selectivity ratio was found to be 29.5.

As for `CN1CCN(Cc2ccc(NC(=O)c3ccc(-c4ccccc4)cc3)cc2)CC1`, in [2], the 50% cytotoxic concentration (CC50) is 144 µM. Also, in data set [3], the solubility kinetic came to 260 µg/mL (≈ 674 µM). The EC50 with Coxsackievirus A9 [6] was determined as 1.07 µM. For the same molecule, in data set [7], the selectivity ratio came out at 134.

`CN1CCN(Cc2ccc(NCc3ccc(-c4ccccc4)cc3)cc2)CC1`: the results for the Activity in the data set with Coxsackievirus A9 [12] and in the data set on Coxsackievirus A9 [13] were 100% and 60%, respectively. The CC50 in [2] was 15.8 µM. Besides, the solubility kinetic in data set [3] was 210 µg/mL (≈ 565 µM). For the same molecule, in the data set with Coxsackievirus A9 [5], the outcome was Active. The concentration for a half-maximal effect (EC50) with Coxsackievirus A9 [6] is 0.64 µM. Further, in data set [7], the selectivity ratio came to 24.7.

Turning to `COc1ccc(CNc2ccc(CN3CCN(C)CC3)cc2)cc1`, the logD in data set [1] stood at 1.81. Also, in data set [2], the CC50 came out at 376 µM. Also, the solubility kinetic in data set [3] stood at 210 µg/mL (≈ 645 µM). For the same molecule, the Activity in the data set on Coxsackievirus A9 [4] came out at 60%. In addition, in the data set with Coxsackievirus A9 [5], the result was Active. Besides, in the data set on Coxsackievirus A9 [6], the EC50 came to 10.5 µM. Also, in data set [7], the selectivity ratio came to 36.

In data set [1], `CN1CCN(Cc2ccc(NCc3ccccc3F)cc2)CC1` displayed a logD of 2.05. Besides, in data set [2], the CC50 is 351 µM. Besides, in [3], the solubility kinetic came to 260 µg/mL (≈ 830 µM). The Activity with Coxsackievirus A9 [4] is on record as about 70%. Besides, the outcome with Coxsackievirus A9 [5] was Active. Moreover, the EC50 in the data set on Coxsackievirus A9 [6] stood at 6.66 µM. For the same molecule, the selectivity ratio in data set [7] is 52.8.

In data set [1], `CN1CCN(Cc2ccc(NCc3cccc(F)c3)cc2)CC1` registered a logD of 1.93. Moreover, the CC50 in data set [2] turned out to be 222 µM. The solubility kinetic in data set [3] was 220 µg/mL (≈ 702 µM). Further, in the data set with Coxsackievirus A9 [4], the Activity is given as about 70%. In addition, the result with Coxsackievirus A9 [5] was Active. Further, the EC50 in the data set on Coxsackievirus A9 [6] is 5.84 µM. For the same molecule, the selectivity ratio in data set [7] is 38.

For the molecule `CN1CCN(Cc2ccc(NCc3ccc(F)c(F)c3)cc2)CC1`, in data set [1], the logD came to 1.98. Besides, in data set [2], the CC50 was determined as 215 µM. Moreover, the solubility kinetic in [3] came out at 220 µg/mL (≈ 664 µM). For the same molecule, the Activity with Coxsackievirus A9 [4] was about 70%. Also, the outcome in the data set with Coxsackievirus A9 [5] was Active. For the same molecule, the EC50 in the data set with Coxsackievirus A9 [6] is 4.11 µM. Moreover, the selectivity ratio in data set [7] is 52.2.

One may read the logD as lipophilicity at a set pH, counting ionised and neutral species. The CC50 is the concentration at which the toxic effect on the cells reaches its halfway point. By EC50 is commonly meant the concentration at which the effect is half-maximal. Broadly, the half-life is the time in which the quantity being followed falls by half.
